According to PubChem BioAssay (NCI):
Where “and” joins values, the source holds several entries; their conditions need not be identical. Equal values may be shown once.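 Grown in 96-well plates, cells were treated for 48 hours with each compound at five concentrations. Insufficient inhibition: endpoint recorded as highest concentration tested. Abbreviation: GI50, concentration required for 50% inhibition of growth. TGI marks complete inhibition of growth.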

Legend:
Experiment in all cases: inhibition of tumour cell growth, NCI panel, 48 h
786-0 renal = test system: 786-0 renal
A549 NSCLC = test system: A549 NSCLC
ACHN renal = test system: ACHN renal
CAKI-1 renal = test system: CAKI-1 renal
IGROV1 ovarian = test system: IGROV1 ovarian
MCF7 breast = test system: MCF7 breast
MOLT-4 leukemia = test system: MOLT-4 leukemia
RXF 393 renal = test system: RXF 393 renal
SF-268 CNS = test system: SF-268 CNS
T-47D breast = test system: T-47D breast

Row | Compound | GI50 (786-0 renal) | TGI (786-0 renal) [µM] | GI50 (A549 NSCLC) | TGI (A549 NSCLC) [µM] | GI50 (ACHN renal) | TGI (ACHN renal) [µM] | GI50 (CAKI-1 renal) [µM] | TGI (CAKI-1 renal) [µM] | GI50 (IGROV1 ovarian) | TGI (IGROV1 ovarian) | GI50 (MCF7 breast) | TGI (MCF7 breast) | GI50 (MOLT-4 leukemia) | TGI (MOLT-4 leukemia) | GI50 (RXF 393 renal) | TGI (RXF 393 renal) | GI50 (SF-268 CNS) | TGI (SF-268 CNS) | GI50 (T-47D breast) | TGI (T-47D breast)
1 | CNC(=O)c1cc(Oc2ccc(NC(=O)Nc3ccc(Cl)c(C(F)(F)F)c3)c(F)c2)ccn1 | 3.39 µM and 3.06 µM | > 83.2 | 2.39 µM and 2.64 µM | > 24.1 | 3.29 µM and 2.88 µM | > 44.9 | 2.95 | > 30.4 | 2750 nM and 1850 nM | 11.2 µM and > 10 µM | 2.12 µM and 2.29 µM | 6.88 µM and 9.02 µM | 2.21 µM and 1.91 µM | 5.75 µM and 6.59 µM | 3.83 µM and 2.91 µM | 17 µM and > 10 µM | 2.93 µM and 3.02 µM | 14 µM and > 10 µM | 2080 nM and 1530 nM | 9.1 µM and 7.49 µM
2 | CNC(=O)c1c(NC(=O)c2ccc(C(C)(C)C)cc2)sc2c1CCC(=O)C2 | 0.434 µM | 1.83 | 0.3 µM | 1.6 | 0.203 µM | 0.922 | 0.203 | 0.945 | 373 nM | 1.64 µM | 0.264 µM | 1.33 µM | 0.314 µM | 2.05 µM | 0.244 µM | 1.01 µM | 0.414 µM | 1.85 µM | 184 nM | 1.53 µM
3 | COC(=O)c1ccc(CN2C(=O)C(Cl)=C(Nc3cccc(Cl)c3C)C2=O)cc1 | 15.6 µM | 51.5 | 37.2 µM | > 100 | 33.7 µM | 90.4 | 26.5 | 71.6 | 2760 nM | 18.5 µM | 35.6 µM | > 100 µM | 5.14 µM | > 100 µM | 33.7 µM | > 100 µM | 45.3 µM | > 100 µM | > 100000 nM | > 100 µM
4 | COc1cccc(CC(C)=C(c2ccc(OCCN3CCCCC3)cc2)c2ccc(OCCN3CCCCC3)cc2)c1 | 1.87 µM | 3.89 | 2.2 µM | 4.35 | 2.16 µM | 4.07 | 2.3 | 4.29 | 1890 nM | 3.99 µM | 0.728 µM | 2.81 µM | 1.5 µM | 4.01 µM | 0.916 µM | 2.88 µM | 2.08 µM | 4.32 µM | 1580 nM | 4.06 µM
5 | Cc1cc2c(cc1Cl)S/C(=C/C(=O)O)C(Nc1ccc3ncsc3c1)=NS2(=O)=O | 8.57 µM | 22.1 | > 25 µM | > 62 | > 52.6 µM | > 68 | 22.1 | > 48.9 | 31900 nM | > 100 µM | 8.75 µM | > 92.5 µM | 5.5 µM | > 26.8 µM | 19.8 µM | > 100 µM | > 23.9 µM | > 74.9 µM | 22100 nM | > 54.8 µM
6 | CC(N)(Cc1c[nH]c2cccc(F)c12)C(=O)O (stereo not given) | > 1000 µM | > 1000 | > 1000 µM | > 1000 | > 1000 µM | > 1000 | > 1000 | > 1000 | 364000 nM | > 1000 µM | > 1000 µM | > 1000 µM | > 1000 µM | > 1000 µM | > 1000 µM | > 1000 µM | > 1000 µM | > 1000 µM | 978000 nM | > 1000 µM
7 | O=C(Nc1cccc(O)c1)c1ccc(NC2=C(Cl)C(=O)N(Cc3ccc(Cl)cc3Cl)C2=O)cc1 | 7.2 µM | > 57 | 15.7 µM | 31.7 | 1.75 µM | 3.21 | 1.92 | 3.58 | 1700 nM | 3.3 µM | 1.83 µM | 4.29 µM | 0.383 µM | 2.17 µM | 2.31 µM | 4.72 µM | 2.01 µM | 4.75 µM | 2010 nM | > 21.2 µM
8 | CC1(C)CNc2cc(NC(=O)c3cccnc3NCc3ccncc3)ccc21 | 45.1 µM | > 100 | 31.9 µM | > 100 | 10.6 µM | > 100 | 21.1 | > 100 | 19900 nM | > 84.2 µM | 23 µM | > 100 µM | 23.8 µM | > 100 µM | 11.7 µM | 64.9 µM | 28.1 µM | > 100 µM | 17000 nM | > 88.5 µM
